Target: GLP-1R (Homo sapiens, UniProt P43220)
Test: GLP-1R Activation - cAMP Assay
Assay type: cell-based
Conditions: cAMP increase in CHO cells stably expressing GLP-1R; each compound run on one of the two cAMP assays (Assay 1 or Assay 2, not specified)
In short: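 cAMP rise read by HTRF after 30 min agonist exposure (10-point titration, 37 °C) in HBSS/20 mM Hepes/0.1% BSA, following 1 h pre-incubation. Cells: stable GLP-1R CHO line, 1,000/well, seeded overnight. Sigmoidal fit of response vs log concentration gives EC50.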

Sequence of GLP-1R (P43220 24-463): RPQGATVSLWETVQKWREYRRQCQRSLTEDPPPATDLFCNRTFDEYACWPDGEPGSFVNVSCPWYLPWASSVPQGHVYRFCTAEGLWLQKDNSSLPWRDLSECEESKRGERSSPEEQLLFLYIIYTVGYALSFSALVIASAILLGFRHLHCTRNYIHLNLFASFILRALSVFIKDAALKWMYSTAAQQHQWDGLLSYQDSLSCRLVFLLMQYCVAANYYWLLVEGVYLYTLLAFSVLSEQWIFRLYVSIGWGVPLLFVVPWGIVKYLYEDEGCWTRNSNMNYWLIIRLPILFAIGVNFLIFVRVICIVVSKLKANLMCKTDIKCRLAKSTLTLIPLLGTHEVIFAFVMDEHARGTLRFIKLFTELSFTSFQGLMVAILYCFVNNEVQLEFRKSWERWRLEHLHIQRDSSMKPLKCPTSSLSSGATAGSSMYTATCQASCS

`CC1(C)COC[C@H]1n1c(Cc2cc(F)c(-c3ccnc(OCc4ccc(C#N)cc4)n3)cc2F)nc2ccc(C(=O)O)cc21` [Example 193, (S)-2-(4-(2-((4-cyanobenzyl)oxy)pyrimidin-4-yl)-2,5-difluorobenzyl)-1-(4,4-dimethyltetrahydrofuran-3-yl)-1H-benzo[d]imidazole-6-carboxylic acid] showed an EC50 of 0.132 nM.

`COc1nnc(COc2cccc(-c3ccc(Cc4nc5c(F)cc(C(=O)O)cc5n4[C@@H]4COCC4(C)C)c(F)c3)n2)s1` [Example 309, (S)-1-(4,4-dimethyltetrahydrofuran-3-yl)-4-fluoro-2-(2-fluoro-4-(6-((5-methoxy-1,3,4-thiadiazol-2-yl)methoxy)pyridin-2-yl)benzyl)-1H-benzo[d]imidazole-6-carboxylic acid] gave an EC50 of 0.368 nM.

In the case of `CC1(C)COC[C@H]1n1c(Cc2cc(F)c(-c3ccnc(OCc4ccc(C(F)(F)F)cc4F)n3)cc2F)nc2ccc(C(=O)O)cc21` [Example 285, (S)-2-(2,5-difluoro-4-(2-((2-fluoro-4-(trifluoromethyl)benzyl)oxy)pyrimidin-4-yl)benzyl)-1-(4,4-dimethyltetrahydrofuran-3-yl)-1H-benzo[d]imidazole-6-carboxylic acid], the EC50 is reported as 0.096 nM.

For `Cn1nnc2ccc(COc3cccc(-c4cc(F)c(Cc5nc6ccc(C(=O)O)cc6n5[C@@H]5COCC5(C)C)cc4F)n3)cc21` [Example 513, (S)-2-(2,5-difluoro-4-(6-((1-methyl-1H-benzo[d][1,2,3]triazol-6-yl)methoxy)pyridin-2-yl)benzyl)-1-(4,4-dimethyltetrahydrofuran-3-yl)-1H-benzo[d]imidazole-6-carboxylic acid], the EC50 was 0.208 nM.

Compound `CC1(C)COC[C@H]1n1c(Cc2cc(F)c(-c3ccc(F)c(OCc4ccc(F)cc4)n3)cc2F)nc2ccc(C(=O)O)cc21` [Example 557, (S)-2-(2,5-difluoro-4-(5-fluoro-6-((4-fluorobenzyl)oxy)pyridin-2-yl)benzyl)-1-(4,4-dimethyltetrahydrofuran-3-yl)-1H-benzo[d]imidazole-6-carboxylic acid] has an EC50 of 0.031 nM.

In the case of `CC1(C)COC[C@H]1n1c(Cc2c(F)cc(-c3cccc(OCc4ccc(C#N)cc4)n3)cc2F)nc2ccc(C(=O)O)cc21` [Example 362, (S)-2-(4-(6-((4-cyanobenzyl)oxy)pyridin-2-yl)-2,6-difluorobenzyl)-1-(4,4-dimethyltetrahydrofuran-3-yl)-1H-benzo[d]imidazole-6-carboxylic acid], the EC50 is reported as 0.266 nM.

Compound `CC1(C)COC[C@H]1n1c(Cc2ccc(-c3ccc(F)c(OCc4ccc(C#N)cc4F)n3)c(F)c2)nc2ccc(C(=O)O)cc21` [Example 369, (S)-2-(4-(6-((4-cyano-2-fluorobenzyl)oxy)-5-fluoropyridin-2-yl)-3-fluorobenzyl)-1-(4,4-dimethyltetrahydrofuran-3-yl)-1H-benzo[d]imidazole-6-carboxylic acid] has an EC50 of 0.364 nM.

In the case of `COCCn1c(Cc2cc(F)c(-c3cccc(OCc4ccc(-c5cnn(C(F)(F)F)c5)cc4F)n3)cc2F)nc2ccc(C(=O)O)cc21` [Example 7, 2-(2,5-difluoro-4-(6-((2-fluoro-4-(1-(trifluoromethyl)-1H-pyrazol-4-yl)benzyl)oxy)pyridin-2-yl)benzyl)-1-(2-methoxyethyl)-1H-benzo[d]imidazole-6-carboxylic acid], the EC50 is reported as 0.6 nM.

Work on `Cn1cc(-c2cc(F)c(COc3cccc(-c4cc(F)c(Cc5nc6ccc(C(=O)O)cc6n5[C@@H]5COCC5(C)C)cc4F)n3)cn2)nn1` [Example 555, (S)-2-(2,5-difluoro-4-(6-((4-fluoro-6-(1-methyl-1H-1,2,3-triazol-4-yl)pyridin-3-yl)methoxy)pyridin-2-yl)benzyl)-1-(4,4-dimethyltetrahydrofuran-3-yl)-1H-benzo[d]imidazole-6-carboxylic acid] yielded an EC50 of 0.047 nM.

In the case of `COCCn1c(Cc2cc(F)c(-c3ccc(F)c(OCc4cnc(-n5ccnn5)cc4Cl)n3)cc2F)nc2ccc(C(=O)O)cc21` [Example 215, 2-(4-(6-((4-chloro-6-(1H-1,2,3-triazol-1-yl)pyridin-3-yl)methoxy)-5-fluoropyridin-2-yl)-2,5-difluorobenzyl)-1-(2-methoxyethyl)-1H-benzo[d]imidazole-6-carboxylic acid], the EC50 is reported as 0.21 nM.

Work on `C#Cc1ccc(COc2cccc(-c3cc(F)c(Cc4nc5ccc(C(=O)O)cc5n4CCOC)cc3F)n2)c(F)c1` [Example 111] yielded an EC50 of 1.46 nM.

Work on `CC1(C)COC[C@H]1n1c(Cc2cc(F)c(-c3ccc(F)c(OCc4ccc(Cl)cc4F)c3)cc2F)nc2ccc(C(=O)O)cc21` [Example 509, (S)-2-((3′-((4-chloro-2-fluorobenzyl)oxy)-2,4′,5-trifluoro-[1,1′-biphenyl]-4-yl)methyl)-1-(4,4-dimethyltetrahydrofuran-3-yl)-1H-benzo[d]imidazole-6-carboxylic acid] yielded an EC50 of 0.144 nM.

In the case of `N#Cc1ccc(COc2cccc(-c3cc(F)c(Cc4nc5ccc(C(=O)O)cc5n4C45COC(C4)C5)cc3F)n2)c(F)c1` [Example 66, 1-(2-oxabicyclo[2.1.1]hexan-4-yl)-2-(4-(6-((4-cyano-2-fluorobenzyl)oxy)pyridin-2-yl)-2,5-difluorobenzyl)-1H-benzo[d]imidazole-6-carboxylic Acid], the EC50 is reported as 12.9 nM.

In the case of `N#Cc1ccc(COc2cccc(-c3cc(F)c(Cc4nc5ccc(C(=O)O)cc5n4[C@H]4CCOC4)cc3F)n2)c(F)c1` [Example 1, (S)-2-(4-(6-((4-cyano-2-fluorobenzyl)oxy)pyridin-2-yl)-2,5-difluorobenzyl)-1-(tetrahydrofuran-3-yl)-1H-benzo[d]imidazole-6-carboxylic acid], the EC50 is reported as 1.12 nM.

In the case of `COc1cc(Cl)ncc1COc1cccc(-c2cc(F)c(Cc3nc4ccc(C(=O)O)cc4n3[C@H]3COCC3(C)C)cc2F)n1` (single isomer, unassigned) [Example 290B], the EC50 is reported as 0.764 nM.

`CC1(C)COC[C@H]1n1c(Cc2cc(F)c(-c3cccc(OCc4cc(F)c(F)cc4F)n3)cc2F)nc2ccc(C(=O)O)cc21` [Example 455, (S)-2-(2,5-difluoro-4-(6-((2,4,5-trifluorobenzyl)oxy)pyridin-2-yl)benzyl)-1-(4,4-dimethyltetrahydrofuran-3-yl)-1H-benzo[d]imidazole-6-carboxylic acid] gave an EC50 of 0.126 nM.

With `COC[C@H]1COC[C@H]1n1c(Cc2cc(F)c(-c3ccc(F)c(OCc4ccc(C(F)(F)F)cc4)n3)cc2F)nc2ccc(C(=O)O)cc21` [Example 538, 2-(2,5-difluoro-4-(5-fluoro-6-((4-(trifluoromethyl)benzyl)oxy)pyridin-2-yl)benzyl)-1-((3S,4S)-4-(methoxymethyl)tetrahydrofuran-3-yl)-1H-benzo[d]imidazole-6-carboxylic acid] the EC50 was 0.109 nM.

Compound `O=C(O)c1ccc2nc(Cc3cc(F)c(-c4cccc(OCc5ccc(Cl)cc5F)n4)cc3F)n(C3COC4CC3C4)c2c1` (stereo in doubt) [Example 573, (S)-1-(2-oxabicyclo[3.1.1]heptan-4-yl)-2-(4-(6-((4-chloro-2-fluorobenzyl)oxy)pyridin-2-yl)-2,5-difluorobenzyl)-1H-benzo[d]imidazole-6-carboxylic acid] has an EC50 of 0.188 nM.

Work on `O=C(O)c1ccc2nc(Cc3cc(F)c(-c4cccc(OCc5cnc(-n6ccnn6)cc5Cl)n4)cc3F)n(CCOC3CC3)c2c1` [Example 562, 2-(4-(6-((4-chloro-6-(1H-1,2,3-triazol-1-yl)pyridin-3-yl)methoxy)pyridin-2-yl)-2,5-difluorobenzyl)-1-(2-cyclopropoxyethyl)-1H-benzo[d]imidazole-6-carboxylic acid] yielded an EC50 of 0.207 nM.
